Results from the supplement of paper PMC10307832.

These cell lines were tested with CCOC1=CC=CC=C1N=NC2=C(NN(C2=O)C3=NC(=CS3)C4=CC=CC=C4)C [BAM7] + C[C@@H](Oc1cc(-c2cnn(C3CCNCC3)c2)cnc1N)c1c(Cl)ccc(F)c1Cl [Crizotinib] (partner 1 µM) (assay: relative viability (nuclei count vs DMSO), 5 days (fraction); higher = more cells survive). Conditions: first compound 0.5 µM.
Summary of the method: (§1)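 One day after seeding in 1536-well plates, lung cancer cell lines were dosed by pin tool. Dosing was either single-drug or a fixed anchor-drug dose plus five library-drug doses (not always all listed) in √10 steps. After 5 days, nuclei were stained in one fix-and-stain step and counted on 4× images, and relative viability is the nuclei count of treated wells over that of vehicle wells, given as the median of duplicate plates.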

Cell Line | relative viability
NCI-H727 | 0.843
NCI-H1650 | 0.882
EBC-1 | 0.216
NCI-H1703 | 0.694
NCI-H1993 | 0.751
SW 1573 | 0.974
NCI-H838 | 0.867
LCLC-103H | 1.08
NCI-H520 | 0.705
NCI-H2126 | 0.969
EMC-BAC-2 | 0.849
NCI-H2085 | 0.829
Calu-6 | 0.883
HCC-366 | 0.552
NCI-H1666 | 1.07
NCI-H596 | 0.97
LK-2 | 0.246
NCI-H2087 | 0.887
SK-MES-1 | 1.05

Cell Line | relative viability
H3255 | 0.981
COR-L23 | 0.785
COR-L 105 | 0.917
IA-LM | 0.725
LOU-NH91 | 0.722
ChaGo-K-1 | 1.16
NCI-H2170 | 1.12
NCI-H2405 | 0.896
HOP-62 | 0.931
HCC-44 | 0.883
A549 | 0.85
LU99A | 0.602
BEN | 0.866
HARA | 1.1
HCC-78 | 0.339
NCI-H322M | 0.859
NCI-H441 | 0.776
NCI-H1299 | 0.98

Same assay, conditions: first compound 5 µM

Cell Line | relative viability
NCI-H727 | 0.799
NCI-H1650 | 1.07
EBC-1 | 0.201
NCI-H1703 | 0.652
NCI-H1993 | 0.843
SW 1573 | 0.962
NCI-H838 | 0.904
LCLC-103H | 1.03
NCI-H520 | 0.747
NCI-H2126 | 0.88
EMC-BAC-2 | 0.852
NCI-H2085 | 0.956
Calu-6 | 0.903
HCC-366 | 0.654
NCI-H1666 | 1.02
NCI-H596 | 1.03
LK-2 | 0.23
NCI-H2087 | 0.916
SK-MES-1 | 1.01

Cell Line | relative viability
H3255 | 0.883
COR-L23 | 0.685
COR-L 105 | 1.02
IA-LM | 1.16
LOU-NH91 | 0.801
ChaGo-K-1 | 1.05
NCI-H2170 | 1.07
NCI-H2405 | 0.965
HOP-62 | 1.02
HCC-44 | 0.907
A549 | 0.861
LU99A | 0.542
BEN | 0.977
HARA | 1.15
HCC-78 | 0.334
NCI-H322M | 0.798
NCI-H441 | 0.656
NCI-H1299 | 1.01

Same assay, conditions: first compound 15.81 µM

Cell Line | relative viability
NCI-H727 | 0.714
NCI-H1650 | 0.939
EBC-1 | 0.191
NCI-H1703 | 0.621
NCI-H1993 | 0.771
SW 1573 | 0.778
NCI-H838 | 0.803
LCLC-103H | 1.01
NCI-H520 | 0.856
NCI-H2126 | 0.832
EMC-BAC-2 | 0.74
NCI-H2085 | 0.75
Calu-6 | 0.783
HCC-366 | 0.471
NCI-H1666 | 1.03
NCI-H596 | 0.913
LK-2 | 0.244
NCI-H2087 | 0.856
SK-MES-1 | 0.961

Cell Line | relative viability
H3255 | 0.795
COR-L23 | 0.601
COR-L 105 | 0.787
IA-LM | 0.619
LOU-NH91 | 0.719
ChaGo-K-1 | 1.12
NCI-H2170 | 0.873
NCI-H2405 | 0.796
HOP-62 | 0.83
HCC-44 | 0.749
A549 | 0.745
LU99A | 0.567
BEN | 0.845
HARA | 0.887
HCC-78 | 0.324
NCI-H322M | 0.811
NCI-H441 | 0.706
NCI-H1299 | 1.01

Same assay, conditions: first compound 50 µM

Cell Line | relative viability
NCI-H727 | 0.675
NCI-H1650 | 0.848
EBC-1 | 0.175
NCI-H1703 | 0.633
NCI-H1993 | 0.826
SW 1573 | 0.8
NCI-H838 | 0.783
LCLC-103H | 0.804
NCI-H520 | 0.684
NCI-H2126 | 0.87
EMC-BAC-2 | 0.857
NCI-H2085 | 0.859
Calu-6 | 0.675
HCC-366 | 0.641
NCI-H1666 | 0.967
NCI-H596 | 0.978
LK-2 | 0.27
NCI-H2087 | 0.7
SK-MES-1 | 1.04

Cell Line | relative viability
H3255 | 0.814
COR-L23 | 0.604
COR-L 105 | 0.718
IA-LM | 0.784
LOU-NH91 | 0.705
ChaGo-K-1 | 1.15
NCI-H2170 | 0.989
NCI-H2405 | 0.805
HOP-62 | 0.854
HCC-44 | 0.787
A549 | 0.781
LU99A | 0.555
BEN | 0.83
HARA | 1
HCC-78 | 0.308
NCI-H322M | 0.641
NCI-H441 | 0.717
NCI-H1299 | 0.946

Each cell line was assayed with CCOC1=CC=CC=C1N=NC2=C(NN(C2=O)C3=NC(=CS3)C4=CC=CC=C4)C [BAM7] + CS(=O)(=O)CCNCc1ccc(-c2ccc3ncnc(Nc4ccc(OCc5cccc(F)c5)c(Cl)c4)c3c2)o1 [Lapatinib] (partner 2 µM) in the same assay as above. Conditions: first compound 0.5 µM.
Summary of the method: as §1

Cell Line | relative viability
NCI-H727 | 0.923
NCI-H1650 | 0.758
EBC-1 | 0.203
NCI-H1703 | 1.1
NCI-H1993 | 0.76
SW 1573 | 1.17
NCI-H838 | 1.03
NCI-H520 | 0.804
NCI-H2126 | 0.726
EMC-BAC-2 | 0.943
NCI-H2085 | 0.764
Calu-6 | 1.06
HCC-366 | 1.09
NCI-H1666 | 0.47
NCI-H596 | 0.984
LK-2 | 1.22
NCI-H2087 | 1.12
SK-MES-1 | 0.488

Cell Line | relative viability
H3255 | 0.251
COR-L23 | 1.28
COR-L 105 | 0.357
IA-LM | 0.766
LOU-NH91 | 0.749
NCI-H2170 | 0.264
NCI-H2405 | 1.1
HOP-62 | 1.09
HCC-44 | 1.09
A549 | 1.08
LU99A | 0.975
BEN | 0.754
HARA | 0.68
HCC-78 | 0.74
NCI-H322M | 0.659
NCI-H1395 | 0.826
NCI-H1299 | 0.835
NCI-H1793 | 0.8

Same assay, conditions: first compound 5 µM

Cell Line | relative viability
NCI-H727 | 1.1
NCI-H1650 | 0.726
EBC-1 | 0.248
NCI-H1703 | 1.17
NCI-H1993 | 0.915
SW 1573 | 1.23
NCI-H838 | 1.04
NCI-H520 | 0.904
NCI-H2126 | 0.664
EMC-BAC-2 | 0.936
NCI-H2085 | 0.612
Calu-6 | 1.09
HCC-366 | 1.1
NCI-H1666 | 0.7
NCI-H596 | 1.14
LK-2 | 1.03
NCI-H2087 | 1.17
SK-MES-1 | 0.438

Cell Line | relative viability
H3255 | 0.242
COR-L23 | 1.14
COR-L 105 | 0.355
IA-LM | 0.816
LOU-NH91 | 0.822
NCI-H2170 | 0.285
NCI-H2405 | 1.26
HOP-62 | 1.27
HCC-44 | 1.02
A549 | 1.05
LU99A | 0.788
BEN | 0.72
HARA | 0.777
HCC-78 | 0.69
NCI-H322M | 0.593
NCI-H1395 | 1.03
NCI-H1299 | 1.01
NCI-H1793 | 0.636

Same assay, conditions: first compound 15.81 µM

Cell Line | relative viability
NCI-H727 | 0.788
NCI-H1650 | 0.806
EBC-1 | 0.233
NCI-H1703 | 0.936
NCI-H1993 | 0.763
SW 1573 | 1.09
NCI-H838 | 0.908
NCI-H520 | 0.93
NCI-H2126 | 0.743
EMC-BAC-2 | 0.962
NCI-H2085 | 0.74
Calu-6 | 1.05
HCC-366 | 1.03
NCI-H1666 | 0.564
NCI-H596 | 1.01
LK-2 | 1.02
NCI-H2087 | 1.08
SK-MES-1 | 0.423

Cell Line | relative viability
H3255 | 0.247
COR-L23 | 0.914
COR-L 105 | 0.382
IA-LM | 0.784
LOU-NH91 | 0.767
NCI-H2170 | 0.258
NCI-H2405 | 1.12
HOP-62 | 0.969
HCC-44 | 1
A549 | 1.03
LU99A | 1.09
BEN | 0.676
HARA | 0.682
HCC-78 | 0.98
NCI-H322M | 0.577
NCI-H1395 | 1.17
NCI-H1299 | 0.954
NCI-H1793 | 0.64

Same assay, conditions: first compound 50 µM

Cell Line | relative viability
NCI-H727 | 0.834
NCI-H1650 | 0.855
EBC-1 | 0.251
NCI-H1703 | 1.2
NCI-H1993 | 0.906
SW 1573 | 1.33
NCI-H838 | 1.14
NCI-H520 | 1.03
NCI-H2126 | 0.755
EMC-BAC-2 | 0.968
NCI-H2085 | 0.881
Calu-6 | 1.07
HCC-366 | 0.984
NCI-H1666 | 0.754
NCI-H596 | 1.12
LK-2 | 1.11
NCI-H2087 | 0.934
SK-MES-1 | 0.505

Cell Line | relative viability
H3255 | 0.278
COR-L23 | 1.02
COR-L 105 | 0.44
IA-LM | 0.748
LOU-NH91 | 0.819
NCI-H2170 | 0.287
NCI-H2405 | 1.1
HOP-62 | 0.986
HCC-44 | 0.983
A549 | 0.924
LU99A | 1.03
BEN | 0.836
HARA | 0.793
HCC-78 | 1.11
NCI-H322M | 0.572
NCI-H1395 | 1.33
NCI-H1299 | 0.964
NCI-H1793 | 0.93

The cell lines below were run with CCn1c(-c2nonc2N)nc2c(C#CC(C)(C)O)ncc(OC[C@H]3CCCNC3)c21 + COc1cccc2cc(-c3nc([C@H]4CC[C@H](C(=O)O)CC4)n4ncnc(N)c34)[nH]c12 [OSI-027] (partner 0.5 µM) in the same assay as above. Conditions: first compound 0.01 µM.
Summary of the method: as §1

Cell Line | relative viability
NCI-H522 | 0.673
NCI-H1623 | 0.391
NCI-H727 | 0.617
NCI-H1650 | 0.641
NCI-H1993 | 0.579
SW 1573 | 0.59
NCI-H838 | 0.354
LCLC-103H | 0.463
NCI-H520 | 0.221
NCI-H2126 | 0.749
EMC-BAC-2 | 0.341
NCI-H2085 | 0.84
HCC-366 | 0.963
NCI-H1666 | 0.776
NCI-H596 | 0.618
LK-2 | 0.199
NCI-H2087 | 0.479
NCI-H2342 | 0.598
SK-MES-1 | 0.642
